Values quoted from earlier work as cited in patent publication US20250170094A1 (priority 2023, published 2025).
Like-named read-outs stand apart in the source and are kept apart here.

Legend:
[1] = not given; remark: listed apart in the source

In the case of `CCC(CC)[C@H](NC(C)=O)[C@@H]1[C@H](O)[C@@H](C(=O)O)C[C@H]1NC(=N)N` [peramivir, (1S,2S,3R,4R)-3-[(1S)-1-(acetylamino)-2-ethylbutyl]-4-guanidino-2-hydroxycyclopentanecarboxylic acid], the solubility (pH 1.0) is listed as “about 59 mg/ml”, the solubility (pH≥5) is listed as ≤ 20 mg/mL and the “oil-water partition coefficient LogP[n-octanol/water]” value [1] is listed as −1.16.
